The source of these data is patent US6486185B1, “3-heteroarylidene-2-indolinone protein kinase inhibitors” (Sugen, Inc., priority 1997, dated 2002).

In general, IC50 refers to the concentration at which inhibition is half-maximal.

One test addresses T1, FLK-1R (Mus musculus, UniProt P35918).
T1 construct: expressed in transfected cells; host or cells: NIH3T3 C7#3
In words: FLK-1 receptor ELISA in cells engineered to express Flk-1. In kind it is cell-based. Conditions: 50% inhibition of PTK activity over control. As to the method:
(§1) The cellular/catalytic assays described herein are performed in an ELISA format. The general procedure is a follows: a compound is introduced to cells expressing the test kinase, either naturally or recombinantly, for some period of time after which, if the test kinase is a receptor, a ligand known to activate the receptor's activity is added. The cells are lysed and the lysate is transferred to the wells of an ELISA plate previously coated with a specific antibody recognizing the substrate of the enzymatic phosphorylation reaction. Non-substrate components of the cell lysate are washed away and the amount of phosphorylation on the substrate is detected with an antibody specifically recognizing phosphotyrosine compared with control cells that were not contacted with a test compound.
An ELISA assay is conducted to measure the kinase activity of the FLK-1 receptor and more specifically, the inhibition or activation of TK activity on the FLK-1 receptor. Specifically, the following assay can be conducted to measure kinase activity of the FLK-1 receptor in cells genetically engineered to express Flk-1.
The following reagents and supplies are used:
a. Corning 96-well ELISA plates (Corning Catalog No. 25805-96);
b. Cappel goat anti-rabbit IgG (catalog no. 55641);
c. PBS (Gibco Catalog No. 450-1300EB);
d. TBSW Buffer (50 mM Tris (pH 7.2), 150 mM NaCl and 0.1% Tween-20);
e. Ethanolamine stock (10% ethanolamine (pH 7.0), stored at 4° C.);
f. HNTG buffer (20 mM HEPES buffer (pH 7.5), 150 mM NaCl, 0.2% Triton X-100, and 10% glycerol);
g. EDTA (0.5 M (pH 7.0) as a 100×stock);
h. Sodium orthovanadate (0.5 M as a 100×stock);
i. Sodium pyrophosphate (0.2 M as a 100×stock);
j. NUNC 96 well V bottom polypropylene plates (Applied Scientific Catalog No. AS-72092);
k. NIH3T3 C7#3 Cells (FLK-1 expressing cells)
l. DMEM with 1×high glucose L-Glutamine (catalog No. 11965-050);
n. L-glutamine, Gibco (catalog no. 25030-016);
o. VEGF, PeproTech, Inc. (catalog no. 100-20) (kept as 1 μg/100 μL stock in Milli-Q dH2O and stored at −20° C.;
p. Affinity purified anti-FLK-1 antiserum;
q. UB40 monoclonal antibody specific for phosphotyrosine (see, Fendley, et al., 1990, Cancer Research 50:1550-1558);
r. EIA grade Goat anti-mouse IgG-POD (BioRad catalog no. 172-1011);
s. 2,2-azino-bis(3-ethylbenz-thiazoline-6-sulfonic acid (ABTS) solution (100 mM citric acid (anhydrous), 250 mM Na2HPO4 (pH 4.0), 0.5 mg/mL ABTS (Sigma catalog no. A-1888)), solution should be stored in dark at 4° C. until ready for use;
t. H2O2 (30% solution) (Fisher catalog no. H325);
u. ABTS/H2O2 (15 mL ABTS solution, 2 μL H2O2) prepared 5 minutes before use and left at room temperature;
v. 0.2 M HCl stock in H2O;
w. dimethylsulfoxide (100%)(Sigma Catalog No. D-8418); and
y. Trypsin-EDTA (Gibco BRL Catalog No. 25200-049).
The following protocol can be used for conducting the assay:
1. Coat Corning 96-well ELISA plates with 1.0 μg per well Cappel Anti-rabbit IgG antibody in 0.1 M Na2CO3 pH 9.6. Bring final volume to 150 μL per well. Coat plates overnight at 4° C. Plates can be kept up to two weeks when stored at 4° C.
2. Grow cells in Growth media(DMEM, supplemented with 2.0 mM L-Glutamine, 10% FBS) in suitable culture dishes until confluent at 37° C., 5% CO2.
3. Harvest cells by trypsinization and seed in Corning 25850 polystyrene 96-well round bottom cell plates, 25.000 cells/well in 200 μL of growth media.
4. Grow cells at least one day at 37° C., 5% CO2.
5. Wash cells with D-PBS 1×.
6. Add 200 μL/well of starvation media (DMEM, 2.0 mM 1-Glutamine, 0.1% FBS). Incubate overnight at 37° C., 5% CO2.
7. Dilute Compounds 1:20 in polypropylene 96 well plates using starvation media. Dilute dimethylsulfoxide 1:20 for use in control wells.
8. Remove starvation media from 96 well cell culture plates and add 162 μL of fresh starvation media to each well.
9. […]
In general terms: ELISA stands for enzyme-linked immunosorbent assay.

Another test concerns the target PDGFR (Homo sapiens, UniProt P09619). Kind of test: PDGF-R ELISA (cellular kinase assay). The test is classed as cell-based. Conditions: 50% inhibition of PTK activity over control. The protocol:
as §1
All cell culture media, glutamine, and fetal bovine serum can be purchased from Gibco Life Technologies (Grand Island, N.Y.) unless otherwise specified. All cells are grown in a humid atmosphere of 90-95% air and 5-10% CO2 at 37° C. All cell lines are routinely subcultured twice a week and are negative for mycoplasma as determined by the Mycotect method (Gibco).
For ELISA assays, cells (U1242, obtained from Joseph Schlessinger, NYU) are grown to 80-90% confluency in growth medium (MEM with 10% FBS, NEAA, 1 mM NaPyr and 2 mM GLN) and seeded in 96-well tissue culture plates in 0.5% serum at 25,000 to 30,000 cells per well. After overnight incubation in 0.5% serum-containing medium, cells are changed to serum-free medium and treated with test compound for 2 hr in a 5% CO2, 37° C. incubator. Cells are then stimulated with ligand for 5-10 minute followed by lysis with HNTG (20 mM Hepes, 150 mM NaCl, 10% glycerol, 5 mM EDTA, 5 mM Na3VO4, 0.2% Triton X-100, and 2 mM NaPyr). Cell lysates (0.5 mg/well in PBS) are transferred to ELISA plates previously coated with receptor-specific antibody and which had been blocked with 5% milk in TBST (50 mM Tris-HCl pH 7.2, 150 mM NaCl and 0.1% Triton X-100) at room temperature for 30 min. Lysates are incubated with shaking for 1 hour at room temperature. The plates are washed with TBST four times and then incubated with polyclonal anti-phosphotyrosine antibody at room temperature for 30 minutes. Excess anti-phosphotyrosine antibody is removed by rinsing the plate with TBST four times. Goat anti-rabbit IgG antibody is added to the ELISA plate for 30 min at room temperature followed by rinsing with TBST four more times. ABTS (100 mM citric acid, 250 mM Na2HPO4 and 0.5 mg/mL 2,2′-azino-bis(3-ethylbenzthiazoline-6-sulfonic acid)) plus H2O2 (1.2 mL 30% H2O2 to 10 mL ABTS) is added to the ELISA plates to start color development. Absorbance at 410 nm with a reference wavelength of 630 nm is recorded about 15 to 30 min after ABTS addition.

T1 sequence (P35918 20-1345): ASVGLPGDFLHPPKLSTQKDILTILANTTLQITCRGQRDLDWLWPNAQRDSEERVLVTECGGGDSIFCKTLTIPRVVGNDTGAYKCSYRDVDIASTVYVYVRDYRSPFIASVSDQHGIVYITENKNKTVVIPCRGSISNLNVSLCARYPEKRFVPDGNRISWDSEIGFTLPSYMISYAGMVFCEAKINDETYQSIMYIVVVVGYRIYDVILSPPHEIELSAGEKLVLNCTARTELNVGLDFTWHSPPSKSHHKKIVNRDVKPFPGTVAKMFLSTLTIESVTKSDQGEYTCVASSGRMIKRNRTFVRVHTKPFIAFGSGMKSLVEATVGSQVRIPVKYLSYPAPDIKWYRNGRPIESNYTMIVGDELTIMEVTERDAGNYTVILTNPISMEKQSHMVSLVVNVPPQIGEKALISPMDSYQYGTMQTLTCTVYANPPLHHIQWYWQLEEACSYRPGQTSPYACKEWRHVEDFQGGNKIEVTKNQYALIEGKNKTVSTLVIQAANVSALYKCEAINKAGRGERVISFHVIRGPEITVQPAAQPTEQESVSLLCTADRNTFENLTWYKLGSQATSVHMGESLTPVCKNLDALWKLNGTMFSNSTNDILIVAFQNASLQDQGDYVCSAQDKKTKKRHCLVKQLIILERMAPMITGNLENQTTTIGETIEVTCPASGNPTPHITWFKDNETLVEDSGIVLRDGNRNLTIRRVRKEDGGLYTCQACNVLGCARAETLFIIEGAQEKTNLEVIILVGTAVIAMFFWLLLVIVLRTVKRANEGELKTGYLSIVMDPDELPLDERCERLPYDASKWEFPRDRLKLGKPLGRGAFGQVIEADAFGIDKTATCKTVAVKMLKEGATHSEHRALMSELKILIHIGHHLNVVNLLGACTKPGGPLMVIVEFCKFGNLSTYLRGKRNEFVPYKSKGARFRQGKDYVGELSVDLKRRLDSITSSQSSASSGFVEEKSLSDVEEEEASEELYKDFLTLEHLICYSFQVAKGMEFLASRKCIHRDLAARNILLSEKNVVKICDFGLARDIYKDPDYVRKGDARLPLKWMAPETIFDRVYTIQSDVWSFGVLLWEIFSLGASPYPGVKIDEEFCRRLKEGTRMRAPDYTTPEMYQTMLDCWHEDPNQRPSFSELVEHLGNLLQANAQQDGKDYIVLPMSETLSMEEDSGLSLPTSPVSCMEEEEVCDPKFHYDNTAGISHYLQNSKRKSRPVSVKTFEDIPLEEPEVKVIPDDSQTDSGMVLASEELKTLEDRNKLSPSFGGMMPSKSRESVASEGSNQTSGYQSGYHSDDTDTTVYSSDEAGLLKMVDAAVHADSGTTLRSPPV
PDGFR, sequence (P09619 33-1106): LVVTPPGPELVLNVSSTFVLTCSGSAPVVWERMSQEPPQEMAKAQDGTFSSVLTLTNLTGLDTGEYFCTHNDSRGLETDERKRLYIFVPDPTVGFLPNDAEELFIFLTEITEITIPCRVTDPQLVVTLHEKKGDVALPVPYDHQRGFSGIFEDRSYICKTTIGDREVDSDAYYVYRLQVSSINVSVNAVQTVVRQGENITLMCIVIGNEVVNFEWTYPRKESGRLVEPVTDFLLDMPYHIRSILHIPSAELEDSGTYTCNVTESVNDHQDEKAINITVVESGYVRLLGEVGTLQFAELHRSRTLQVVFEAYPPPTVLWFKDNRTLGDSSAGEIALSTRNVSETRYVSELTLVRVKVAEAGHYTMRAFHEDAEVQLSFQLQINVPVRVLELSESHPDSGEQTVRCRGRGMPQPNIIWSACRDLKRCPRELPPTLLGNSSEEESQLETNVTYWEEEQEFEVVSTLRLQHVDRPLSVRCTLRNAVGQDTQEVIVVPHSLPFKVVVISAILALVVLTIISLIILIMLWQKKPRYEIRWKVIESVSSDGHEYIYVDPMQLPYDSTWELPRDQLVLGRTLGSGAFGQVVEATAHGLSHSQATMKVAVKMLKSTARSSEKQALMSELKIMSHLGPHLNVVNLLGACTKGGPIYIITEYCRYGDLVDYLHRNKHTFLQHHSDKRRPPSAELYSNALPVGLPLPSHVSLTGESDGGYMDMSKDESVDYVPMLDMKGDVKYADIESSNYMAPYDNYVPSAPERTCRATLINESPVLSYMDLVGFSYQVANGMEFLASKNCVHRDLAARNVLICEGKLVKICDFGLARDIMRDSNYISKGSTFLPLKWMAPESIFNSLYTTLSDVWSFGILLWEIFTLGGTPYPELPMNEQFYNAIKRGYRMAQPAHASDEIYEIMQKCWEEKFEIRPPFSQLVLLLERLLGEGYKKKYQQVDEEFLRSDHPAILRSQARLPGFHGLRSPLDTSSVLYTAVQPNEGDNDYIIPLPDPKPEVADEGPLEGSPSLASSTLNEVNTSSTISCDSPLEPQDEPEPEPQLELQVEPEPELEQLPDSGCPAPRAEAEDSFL

For the compound `Cc1c[nH]c(C=C2C(=O)Nc3ccccc32)c1CCC(=O)O` [3-[3-(2-carboxyethyl-4-methylpyrrol-2-methylidenyl]-2-indolinone], at FLK-1R, the IC50 was 0.4 µM.
At FLK-1R, `CCOC(=O)c1c(C)[nH]c(C=C2C(=O)Nc3ccc(Br)cc32)c1C` [3-(2,4-dimethyl-3-ethoxycarbonylpyrrol-5-methylidenyl)-5-bromo-2-indolinone] came in with an IC50 of 4.2 µM.
The compound `CC(=O)c1[nH]c(C=C2C(=O)Nc3ccccc32)c(C)c1C` [3-(2-acetyl-3,4-dimethylpyrrol-5-methylidenyl)-2-indolinone] had an IC50 against FLK-1R of 23.8 µM.
For the compound `COC(=O)Cc1c(Cl)[nH]c(C=C2C(=O)Nc3ccccc32)c1C(=O)OC` [3-(2-chloro-4-methoxycarbonyl-3-methoxycarbonylmethylpyrrol-5-methylidenyl)-2-indolinone], the IC50 against FLK-1R is > 50 µM.
In the case of `CCOC(=O)CCc1c(C(=O)OCC)[nH]c(C=C2C(=O)Nc3ccccc32)c1CC(=O)OCC` [3-[2-ethoxycarbonyl-3-(2-ethoxycarbonylethyl)-4-ethoxycarbonylmethyl)pyrrol-5-methylidenyl)-2-indolinone], the IC50 at PDGFR and against FLK-1R was > 10 µM each time.
As for `CCOC(=O)c1[nH]c(C=C2C(=O)Nc3ccccc32)c(C(C)=O)c1C` [3-(4-acetyl-2-ethoxycarbonyl-3-methylpyrrol-5-methylidenyl)-2-indolinone], the concentration for half-maximal inhibition (IC50) against PDGFR and against FLK-1R was > 10 µM each time.
`CCOC(=O)c1c[nH]c(C=C2C(=O)Nc3ccccc32)c1C` [3-(4-ethoxycarbonyl-3-methylpyrrol-2-methylidenyl)-2-indolinone]: the IC50 against PDGFR is > 100 µM; on FLK-1R it was 0.2 µM.
In the case of `COC(=O)CCc1c[nH]c(C=C2C(=O)Nc3cc(OC)c(OC)cc32)c1C` [3-[4-(2-methoxycarbonylethyl)-3-methylpyrrol-2-methylidenyl]-5,6-dimethoxy-2-indolinone], the half-inhibitory concentration (IC50) on PDGFR was determined as 22.3 µM; on FLK-1R it was 36 µM.
`COC(=O)CCc1c[nH]c(C=C2C(=O)Nc3ccccc32)c1C` [3-[4-(2-methoxycarbonylethyl-3-methylpyrrol-2-methylidenyl]-2-indolinone] showed an IC50 on FLK-1R of 1.1 µM.
The same measure, in the same setting: next, `CCOC(=O)c1c(C)[nH]c(C=C2C(=O)Nc3ccc(NC(=O)c4ccc(C(=O)OC)cc4)cc32)c1C` [3-(2,4-dimethyl-3-ethoxycarbonylpyrrol-5-methylidenyl)-5-(4-methoxycarbonylbenzamido)-2-indolinone]: > 10 µM.
